Here are results for 5 molecules from patent publication US9108963B2, “Pyrazolopyridine, pyrazolopyrazine, pyrazolopyrimidine, pyrazolothiophene and pyrazolothiazole compounds as MGLUR4 allosteric potentiators, compositions, and methods of treating neurological dysfunction” (Vanderbilt University, priority 2010, dated 2015).

SMILES strings stand for the structures.

One assay has as its target T1, mGluR5 (Rattus norvegicus, UniProt P31424).
T1 construct: expressed in transfected cells; host or cells: human embryonic kidney (HEK) cells
As to the kind of experiment: mGluR5 negative allosteric modulation, decrease in response to non-maximal glutamate in HEK cells. The format is cell-based. As to conditions: Table 3; read-out: mGlu5 IC50. The source says:
Embodiments of the present invention are also mGluR5 negative allosteric modulators. Accordingly, in one aspect, the invention relates to compounds that are also useful as negative allosteric modulators of the metabotropic glutamate receptor subtype 5 (mGluR5). Negative allosteric modulators are non-competitive antagonists and can include a range of maximal antagonist activity from partial antagonists to inverse agonists. In one aspect, the present invention relates to compounds that allosterically modulate mGluR5 receptor activity, affecting the sensitivity of mGluR5 receptors to agonists without acting as orthosteric agonists themselves. […] The compounds of the invention can be useful in the treatment neurological and psychiatric disorders associated with glutamate dysfunction and other diseases in which metabotropic glutamate receptors are involved, as further described herein. […] In further aspect, the human embryonic kidney cells are transfected with human mGluR5. In yet a further aspect, human embryonic kidney cells are transfected with mGluR5 of a mammal.
In further aspect, the human embryonic kidney cells are transfected with human mGluR5. In yet a further aspect, human embryonic kidney cells are transfected with mGluR5 of a mammal.

In the next assay the target is mGluR4 (UniProt Q14833). As to the kind of experiment: mGluR4 potentiation assay (Ca2+ or thallium flux fluorescence, agonist EC20). Type of assay: cell-based, human or rat. As to conditions: Table 3; read-out: mGlu4 EC50. As to the method:
The disclosed compounds and compositions can be evaluated for their ability to act as a potentiator of metabotropic glutamate receptor activity, in particular mGluR4 activity, by any suitable known methodology known in the art. For example, Chinese Hamster Ovary (CHO) cells transfected with human mGluR4 or HEK cells co-transfected with rat mGluR4 and the G-protein regulated Inwardly Rectifying Potassium channel (GIRK) were plated in clear bottom assay plates for assay in a Hamamatsu FDSS Fluorometric Plate Reader. The cells were loaded with either a Ca2+-sensitive fluorescent dye or the thallium responsive dye and the plates were washed and placed into a suitable kinetic plate reader. For human mGluR4 assays, a fluorescence baseline was established for 3-5 seconds, the disclosed compounds were then added to the cells, and the response in cells was measured. Approximately two and a half minutes later, a concentration of mGluR4 orthosteric agonist (e.g. glutamate or L-AP4) eliciting approximately 20% (EC20) of the maximal agonist response was added to the cells, and the response was measured. Two minutes later, a concentration of mGluR4 agonist (e.g. glutamate or L-AP4) eliciting 80% (EC80) of the maximal agonist response was added to the cells, and the response was measured. For rat mGluR4/GIRK experiments, a baseline was established for approximately five seconds, disclosed compounds were added, and either an EC20 or EC80 concentration of agonist was added approximately two and one half minutes later.
The above described assay operated in two modes. In the first mode, a range of concentrations of the disclosed compounds are added to cells, followed by a single fixed concentration of agonist. If the compound acts as a potentiator, an EC50 value for potentiation and a maximum extent of potentiation by the compound at this concentration of agonist is determined by non-linear curve fitting. If the compound acts as a noncompetitive antagonist, an IC50 value is determined by non-linear curve fitting. In the second mode, several fixed concentrations of the disclosed compounds are added to various wells on a plate, followed by a range in concentrations of agonist for each concentration of disclosed compound. The EC50 values for the agonist at each concentration of compound are determined by non-linear curve fitting. A decrease in the EC50 value of the agonist with increasing concentrations of the sample compound (a leftward shift of the agonist concentration-response curve) is an indication of the degree of mGluR4 potentiation at a given concentration of the sample compound. A decrease in the maximal response of the agonist with increasing concentrations of the sample compounds, with or without a rightward shift in agonist potency, is an indication of the degree of noncompetitive antagonism at mGluR4. The second mode also indicates whether the sample compounds also affect the maximum response to mGluR4 to agonists.

As a reminder, the IC50 is the concentration at which inhibition is half-maximal. By EC50 is commonly meant the concentration that produces a half-maximal response.

T1 sequence (P31424 21-1203): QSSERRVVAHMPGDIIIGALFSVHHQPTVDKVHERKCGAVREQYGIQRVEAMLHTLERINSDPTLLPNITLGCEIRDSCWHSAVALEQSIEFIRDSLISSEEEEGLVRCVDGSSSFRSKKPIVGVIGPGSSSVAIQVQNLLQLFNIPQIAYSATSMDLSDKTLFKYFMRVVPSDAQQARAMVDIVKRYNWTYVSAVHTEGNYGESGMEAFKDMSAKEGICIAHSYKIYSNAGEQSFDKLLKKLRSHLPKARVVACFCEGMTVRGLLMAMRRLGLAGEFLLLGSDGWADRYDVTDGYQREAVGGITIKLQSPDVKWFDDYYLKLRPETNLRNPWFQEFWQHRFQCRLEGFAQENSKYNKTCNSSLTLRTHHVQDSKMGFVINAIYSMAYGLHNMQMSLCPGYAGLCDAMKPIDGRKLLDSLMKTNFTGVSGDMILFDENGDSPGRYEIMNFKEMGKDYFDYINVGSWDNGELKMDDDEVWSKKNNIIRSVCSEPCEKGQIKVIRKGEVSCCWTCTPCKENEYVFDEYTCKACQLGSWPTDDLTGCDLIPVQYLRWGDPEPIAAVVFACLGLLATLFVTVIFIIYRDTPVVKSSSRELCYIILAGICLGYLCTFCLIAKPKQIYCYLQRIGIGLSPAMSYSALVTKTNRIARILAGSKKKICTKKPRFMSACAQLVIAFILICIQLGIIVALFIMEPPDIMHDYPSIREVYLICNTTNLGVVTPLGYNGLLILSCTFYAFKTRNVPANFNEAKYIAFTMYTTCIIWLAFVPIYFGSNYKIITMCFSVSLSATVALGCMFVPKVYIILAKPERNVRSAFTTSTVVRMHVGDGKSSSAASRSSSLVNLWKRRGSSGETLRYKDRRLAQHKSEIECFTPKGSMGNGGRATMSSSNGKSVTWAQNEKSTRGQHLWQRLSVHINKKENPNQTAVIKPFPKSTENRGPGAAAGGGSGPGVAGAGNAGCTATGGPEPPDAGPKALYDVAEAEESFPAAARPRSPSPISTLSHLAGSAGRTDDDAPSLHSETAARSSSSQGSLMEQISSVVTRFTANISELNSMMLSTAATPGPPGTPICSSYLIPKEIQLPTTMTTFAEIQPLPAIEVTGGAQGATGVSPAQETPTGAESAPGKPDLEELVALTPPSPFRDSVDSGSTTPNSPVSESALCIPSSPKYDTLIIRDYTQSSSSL

Take `COc1ccnc(Nc2ccc(Nc3n[nH]c4cccnc34)cc2Cl)n1` [Example 123, 2-chloro-N1-(4-methoxypyrimidin-2-yl)-N4-(1H-pyrazolo[4,3-b]pyridin-3-yl)benzene-1,4-diamine]: the 50% inhibitory concentration (IC50) on mGluR5 was determined as 670 nM. Also, the EC50 on mGluR4 stood at 25.5 nM.

`FC(F)(F)c1cccnc1Nc1ccc(Nc2n[nH]c3cccnc23)cc1Cl` [Example 124, 2-chloro-N4-(1H-pyrazolo[4,3-b]pyridin-3-yl)-N1-(3-(trifluoromethyl)pyridin-2-yl)benzene-1,4-diamine]: on mGluR5, the IC50 stood at 1540 nM. Moreover, at mGluR4, the EC50 amounted to 1560 nM.

For `Clc1cc(Nc2n[nH]c3cccnc23)ccc1Nc1cnc2ccccc2n1` [Example 126, 2-chloro-N4-(1H-pyrazolo[4,3-b]pyridin-3-yl)-N1-(quinoxalin-2-yl)benzene-1,4-diamine], the IC50 at mGluR5 amounted to 3700 nM. The EC50 on mGluR4 was determined as 38 nM.

Consider `Clc1cc(Nc2n[nH]c3cccnc23)ccc1Nc1cccnc1` [Example 127, 2-chloro-N4-(1H-pyrazolo[4,3-b]pyridin-3-yl)-N1-(pyridin-3-yl)benzene-1,4-diamine], for which the half-inhibitory concentration (IC50) on mGluR5 was found to be 22 nM. Further, the EC50 on mGluR4 was 53.1 nM.

Regarding `Cc1ccnc(Nc2ccc(Nc3n[nH]c4cccnc34)cc2Cl)c1` [Example 129, 2-chloro-N1-(4-methylpyridin-2-yl)-N4-(1H-pyrazolo[4,3-b]pyridin-3-yl)benzene-1,4-diamine], on mGluR5, the IC50 stood at 970 nM. Further, the EC50 on mGluR4 turned out to be 19.4 nM.
